Measurements published in patent EP2329817A1, “Retinoic acid receptor antagonists, miR-10a inhibitors and inhibitors of HOXB1 or HOXB3 repressors for treating pancreatic cancer” (Ernst-Moritz-Arndt-Universität Greifswald, priority 2009, dated 2011).

What was measured:
[1] = test system: xenotransplanted primary human tumours; experiment: Zebrafish embryo xenotransplantation of pretreated fragments of resected primary human tumours; assay type: in vivo; settings: for Migration <5 / Migration 5 to 20 / Migration >20 / total >5 / total >5, final line, number: number of embryos; for total >5, final line, per cent / total >5, final line, number: whole experiment; for presence of micro-metastases at 3dpl, Migration 5 to 20: number in square brackets
Experimental: Zebrafish (Danio rerio) (Tuebingen line, AIB strain (Albinos) and Tg (fli1:eGFP) were handled in compliance with local animal care regulations and standard protocols of the Netherlands and Germany. Fish were kept at 28°C in aquaria with day/night light cycles (10 h dark versus 14 h light periods). The developing embryos were kept in an incubator at constant temperatures.
Cells were stained with CM-Dil (red fluorescence) at a 1:1000 dilution according to the manufacturers protocol (Vybrant, Invitrogen). Cells were suspended in 67% DPBS for injection into embryos. 2dpf zebrafish embryos were dechorionated and tranquilized with tricaine (Sigma). An injection needle (15µm diameter) with a manual injector (Eppendorf; Celltram Vario) was used to inject ∼200 cells into the yolk sac of 2dpf zebrafish embryos. On average 80 embryos were injected for each treatment and embryos with detectable cell scatter 2 h after the transfer (and therefore presumably due to the transfer procedure) were excluded from further analysis. Presence of cells was checked after 2 h incubation at 31°C and embryos were subsequently kept at 35°C. We defined metastasis based on the number of fluorescent cells that were detected outside the yolk sac 2 days after the transfer. Presence of 5 or more cells was considered "metastasised" and percentages of metastasised fish in each experiment were counted. The occurence of micro-metastasis is indicated by cell clusters of ≥4 cells presumably originating from cell division. PaTu-S cells and ASPC1 cells were transfected ON with indicated concentrations of miR-10a siRNA in the presence of ICA-Fectin TM442 (Eurogentec, Belgium). Whole cell lysates were prepared 36h post-transfection and 40 µg of total lysates were separated on 7.5% PAA-gels and blotted with anti E-cadherin, α-catenin, β-catenin (all mAbs, Transduction Labs) and actin antibodies (mAb Sigma-Aldrich, Germany).
Human resection specimens were obtained at the Universitätsklinikum Greifswald according to local ethical guidelines and after obtaining informed patient consent. Tumour tissue was cut into small pieces using a scalpel blade. Tissue fragments were then washed with 67% DPBS and stained with 1:500 CM-Dil. Stained tissue fragments of approximal ^1/5 to ½ the size of the yolk sac were transferred with a glass transplantation needle into the yolk. After 2 h at 31 °C the embryos were checked that the yolk had sealed itself and the embryos were incubated at 35°C for the remainder of the experiment.
Small tissue fragments from two well differentiated ductal adenocarcinoma resection specimen of the Pancreas head (2 and 3) were incubated with miR-10a Morpholino or RARα inhibitor and, following staining with carbocyanine dye (CM-Dil), transplanted into zebrafish embryos (Controls: DMSO and control-Morpholino). Formation of micrometastases in the fish was assessed at 3 dpi by analysis of present cell aggregates (including daughter cells) outside the yolk sac. […] Tumour grading and classification was done according to histopathological examination.

RARα = target: T1, RARα (Homo sapiens, UniProt P10276); settings: literature references 14, 15; read-out: 50% inhibition; cited from earlier work
T1 sequence (P10276 1-462): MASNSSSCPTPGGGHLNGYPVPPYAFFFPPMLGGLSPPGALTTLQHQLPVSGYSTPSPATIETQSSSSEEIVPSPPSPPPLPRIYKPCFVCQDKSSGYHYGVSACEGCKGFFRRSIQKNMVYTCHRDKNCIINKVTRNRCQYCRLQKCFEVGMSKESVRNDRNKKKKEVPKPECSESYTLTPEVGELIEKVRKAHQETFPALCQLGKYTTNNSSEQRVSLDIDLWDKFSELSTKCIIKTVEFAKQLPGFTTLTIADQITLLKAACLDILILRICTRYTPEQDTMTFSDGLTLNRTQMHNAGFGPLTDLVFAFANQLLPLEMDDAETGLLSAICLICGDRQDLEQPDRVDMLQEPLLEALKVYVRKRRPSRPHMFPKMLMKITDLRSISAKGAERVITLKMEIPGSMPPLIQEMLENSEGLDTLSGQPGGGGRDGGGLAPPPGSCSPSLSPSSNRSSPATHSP

CCCCCCCOc1cc2c(cc1/C(C)=C/c1ccc(C(=O)O)cc1)C(C)(C)CCS2(=O)=O [Ro-41-5253, Benzoic acid, 4-(2-(7-(heptyloxy)-3,4-dihydro-4,4-dimethyl-2H-1-benzothiopyran-6-yl)-1-propenyl)-, S,S-dioxide, (E)]
Migration <5 ([1]; Patient 1 (adenocarcinoma of the ampulla vateri, G3), Day 1): 1 | Migration 5 to 20 ([1]; Patient 1, Day 1): 2 | Migration >20 ([1]; Patient 1, Day 1): 0 | total >5 ([1]; Patient 1, Day 1): 2 | Migration 5 to 20 ([1]; Patient 1, Day 2): 2 | Migration <5 ([1]; Patient 1, Day 2): 0 | Migration >20 ([1]; Patient 1, Day 2): 0 | total >5 ([1]; Patient 1, Day 2): 2 | Migration 5 to 20 ([1]; Patient 1, Day 3): 1 | Migration <5 ([1]; Patient 1, Day 3): 0 | Migration >20 ([1]; Patient 1, Day 3): 0 | total >5 ([1]; Patient 1, Day 3): 2 | total >5, final line, per cent ([1]; Patient 1): 3.1% | total >5, final line, number ([1]; Patient 1): 2 | Migration <5 ([1]; Patient 2 (well-differentiated adenocarcinoma of the pancreas, G2), Day 1): 1 | Migration 5 to 20 ([1]; Patient 2, Day 1): 3 | Migration >20 ([1]; Patient 2, Day 1): 0 | total >5 ([1]; Patient 2, Day 1): 3 | Migration 5 to 20 ([1]; Patient 2, Day 2): 2 | Migration <5 ([1]; Patient 2, Day 2): 1 | Migration >20 ([1]; Patient 2, Day 2): 0 | total >5 ([1]; Patient 2, Day 2): 2 | Migration 5 to 20 ([1]; Patient 2, Day 3): 1 | Migration <5 ([1]; Patient 2, Day 3): 0 | Migration >20 ([1]; Patient 2, Day 3): 0 | total >5 ([1]; Patient 2, Day 3): 1 | total >5, final line, per cent ([1]; Patient 2): 4.3% | total >5, final line, number ([1]; Patient 2): 3 | Migration <5 ([1]; Patient 3 (well-differentiated adenocarcinoma of the pancreas, G2), Day 1): 0 | Migration 5 to 20 ([1]; Patient 3, Day 1): 3 | Migration >20 ([1]; Patient 3, Day 1): 0 | total >5 ([1]; Patient 3, Day 1): 3 | Migration 5 to 20 ([1]; Patient 3, Day 2): 3 | Migration <5 ([1]; Patient 3, Day 2): 0 | Migration >20 ([1]; Patient 3, Day 2): 0 | total >5 ([1]; Patient 3, Day 2): 3 | Migration 5 to 20 ([1]; Patient 3, Day 3): 3 | Migration <5 ([1]; Patient 3, Day 3): 0 | Migration >20 ([1]; Patient 3, Day 3): 0 | total >5 ([1]; Patient 3, Day 3): 3 | total >5, final line, per cent ([1]; Patient 3): 4.5% | total >5, final line, number ([1]; Patient 3): 3 | total >5 [%] ([1]; Table 2, Patient 1): 3.1% | presence of micro-metastases at 3dpl, Migration 5 to 20 ([1]; Table 2, Patient 1): 0 | Migration 5 to 20 ([1]; Table 2, Patient 1): 2 | Migration <5 ([1]; Table 2, Patient 1): 0 | Migration >20 ([1]; Table 2, Patient 1): 0 | total >5 [%] ([1]; Table 2, Patient 2): 4.3% 4.4x10^-5 | presence of micro-metastases at 3dpl, Migration 5 to 20 ([1]; Table 2, Patient 2): 0 | Migration 5 to 20 ([1]; Table 2, Patient 2): 3 | Migration <5 ([1]; Table 2, Patient 2): 1 | Migration >20 ([1]; Table 2, Patient 2): 0 | total >5 [%] ([1]; Table 2, Patient 3): 4.5% | presence of micro-metastases at 3dpl, Migration 5 to 20 ([1]; Table 2, Patient 3): 0 | Migration 5 to 20 ([1]; Table 2, Patient 3): 3 | Migration <5 ([1]; Table 2, Patient 3): 0 | Migration >20 ([1]; Table 2, Patient 3): 0 | reduction of invasiveness and metastatic behaviour ([1]; compared to the DMSO treated control tissue of the same tumour specimen): > 95% | metastatic behavior of treated specimen ([1]; p< 0.001, student t-test): significant decrease | IC50 (RARα): 60 nM
